Consider two compounds from US20050169992A1, “Methods and dosage forms for increasing solubility of drug compositions for controlled delivery” (priority 2003, published 2005).

Data set [1] in a line: Saturated solubility of topiramate in de-ionized water and aqueous surfactant solutions at 37° C. In kind it is physicochemical. The settings on record: Lutrol F127, F87, F108, F68 and Myrj 52 solutions at 1, 5, 15 weight percent, FIG. 6. Here is the method:
Aqueous solubility is determined by adding the therapeutic agent to stirred or agitated water maintained in a constant temperature bath at a temperature of 37 degrees centigrade until equilibrium is established between the dissolved and undissolved states and the concentration of dissolved drug is constant. The resulting solution saturated with active agent is then filtered, typically under pressure through a 0.8-micron Millipore filter, and the concentration in solution is measured by any appropriate analytical method including gravimetric, ultraviolet spectrophotometry, refractive index, refractive index chromatography, and the like.
The present invention involves a method to match the appropriate solid surfactant or blend of surfactants with a particular pharmaceutical active agent to produce the solubilizing core, or S-Core of the present invention. […] Then, pharmaceutical agent is added in excess to the surfactant solutions and the saturated solubility of the pharmaceutical active agent is then measured by an appropriate analytical method such as ultraviolet spectroscopy, chromatographic methods, or gravimetric analysis. […]
The aqueous surfactant solutions were then equilibrated to constant temperature in a 37° C. water bath. […] The resulting saturated solutions of drug were filtered through 0.8-micron filters and analyzed for drug concentration by refractive index chromatography. […]

For data set [2] the following is noted: Analytical Profiles of Drug Substances Volume 13, p 425; cited from earlier work.

For the compound `CC1(C)O[C@@H]2[C@@H](CO[C@@]3(COS(N)(=O)=O)OC(C)(C)O[C@@H]23)O1` [topiramate], the “Topiramate solubility in water in the presence of surfactant compared to control” value in data set [1] is reported as “increased”. For the compound `O=C1NC(=O)C(c2ccccc2)(c2ccccc2)N1` [phenytoin], in data set [2], the Solubility of phenytoin is 20 µg/mL.
